Test results published in patent US20220380338A1, “CYCLOALKYL 3-OXOPIPERAZINE CARBOXAMIDES AND CYCLOHETEROALKYL 3-OXOPIPERAZINE CARBOXAMIDES AS NAV1.8 INHIBITORS” (Merck Sharp & Dohme LLC, priority 2021, published 2022).

The compounds below were run against T1, human NaV1.8 (Homo sapiens, UniProt Q9Y5Y9) (assay: Nav1.8 Qube® Assay (automated 384-well patch-clamp, inhibition of sodium current)). Settings: human NaV1.8 channels stably expressed in HEK 293 cells, room temperature.
T1 construct: expressed in transfected cells
T1 sequence (Q9Y5Y9 whole entry): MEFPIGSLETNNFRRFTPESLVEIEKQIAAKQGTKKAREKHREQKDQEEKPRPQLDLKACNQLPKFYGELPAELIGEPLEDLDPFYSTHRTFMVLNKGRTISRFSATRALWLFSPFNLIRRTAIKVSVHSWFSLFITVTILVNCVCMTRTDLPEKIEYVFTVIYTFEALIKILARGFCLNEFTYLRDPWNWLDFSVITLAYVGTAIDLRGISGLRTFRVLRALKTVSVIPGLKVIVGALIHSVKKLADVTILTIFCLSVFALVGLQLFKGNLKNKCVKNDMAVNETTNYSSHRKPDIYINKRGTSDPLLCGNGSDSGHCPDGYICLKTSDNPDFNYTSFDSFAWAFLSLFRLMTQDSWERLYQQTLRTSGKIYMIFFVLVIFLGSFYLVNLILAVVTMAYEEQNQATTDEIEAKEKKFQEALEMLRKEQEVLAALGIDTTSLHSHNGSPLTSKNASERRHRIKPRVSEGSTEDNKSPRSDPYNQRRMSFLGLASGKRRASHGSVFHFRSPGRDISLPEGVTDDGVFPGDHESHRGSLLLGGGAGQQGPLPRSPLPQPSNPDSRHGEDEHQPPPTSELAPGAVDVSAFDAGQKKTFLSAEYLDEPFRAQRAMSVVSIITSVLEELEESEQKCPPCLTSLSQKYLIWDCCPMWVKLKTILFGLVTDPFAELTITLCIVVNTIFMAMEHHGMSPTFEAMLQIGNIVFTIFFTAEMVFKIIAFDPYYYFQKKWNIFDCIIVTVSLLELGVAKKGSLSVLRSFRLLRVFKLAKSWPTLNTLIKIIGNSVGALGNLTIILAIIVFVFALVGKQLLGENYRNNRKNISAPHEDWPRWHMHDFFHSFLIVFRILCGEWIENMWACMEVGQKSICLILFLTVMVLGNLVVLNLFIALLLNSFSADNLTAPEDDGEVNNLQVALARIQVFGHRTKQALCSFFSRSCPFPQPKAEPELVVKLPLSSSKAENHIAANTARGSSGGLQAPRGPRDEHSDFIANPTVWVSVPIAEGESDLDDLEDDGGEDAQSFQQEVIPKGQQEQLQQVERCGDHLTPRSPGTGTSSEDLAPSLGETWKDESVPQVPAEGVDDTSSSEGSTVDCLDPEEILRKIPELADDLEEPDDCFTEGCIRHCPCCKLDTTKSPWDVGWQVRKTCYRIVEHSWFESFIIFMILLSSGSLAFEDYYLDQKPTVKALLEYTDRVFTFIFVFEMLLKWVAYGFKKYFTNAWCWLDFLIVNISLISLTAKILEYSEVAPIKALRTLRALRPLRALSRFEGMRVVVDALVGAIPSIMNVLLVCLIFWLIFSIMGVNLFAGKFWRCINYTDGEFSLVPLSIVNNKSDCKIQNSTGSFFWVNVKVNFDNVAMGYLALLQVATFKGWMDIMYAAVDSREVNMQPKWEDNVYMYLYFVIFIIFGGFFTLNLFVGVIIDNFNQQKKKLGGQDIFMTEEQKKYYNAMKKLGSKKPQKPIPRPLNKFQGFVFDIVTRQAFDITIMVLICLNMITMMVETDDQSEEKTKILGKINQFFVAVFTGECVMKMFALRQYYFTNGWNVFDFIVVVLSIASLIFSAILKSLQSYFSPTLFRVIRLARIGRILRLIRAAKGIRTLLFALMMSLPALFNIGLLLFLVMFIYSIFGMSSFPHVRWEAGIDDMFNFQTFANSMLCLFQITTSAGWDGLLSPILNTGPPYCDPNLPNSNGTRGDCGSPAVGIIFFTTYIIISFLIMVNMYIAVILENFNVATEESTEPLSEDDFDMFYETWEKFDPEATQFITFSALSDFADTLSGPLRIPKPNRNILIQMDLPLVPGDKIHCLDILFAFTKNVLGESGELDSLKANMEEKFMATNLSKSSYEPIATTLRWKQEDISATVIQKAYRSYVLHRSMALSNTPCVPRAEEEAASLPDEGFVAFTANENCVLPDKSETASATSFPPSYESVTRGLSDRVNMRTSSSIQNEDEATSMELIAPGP
Assay type: cell-based
In short: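 Whole-cell voltage clamp at room temperature in HEK293 cells stably expressing NaV1.8; from −90 mV hold, 10 s 1 Hz train of 20 ms pulses to 10 mV with 980 ms repolarization to −67 mV. Peak currents of 1st and 10th pulses give resting and inactivated-state IC50s, Hill fit.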

SMILES | IC50 [nM]
O=C1CN(C(=O)NC(c2ccc(Cl)c(C(F)(F)F)n2)C2CCC(C(F)(F)F)CC2)CCN1 (single isomer, unassigned) [Example 45A] | 283
C[C@@H]1C(=O)NCCN1C(=O)NC(c1ccc(Cl)c(C(F)(F)F)n1)C1CCC(F)(F)CC1 (single isomer, unassigned) [Example 46A, (2R)-N-((R or S)-(5-chloro-6-(trifluoro-methyl)pyridin-2-yl)(4,4-difluoro-cyclohexyl)methyl)-2-methyl-3-oxo-piperazine-1-carboxamide] | 343
C[C@@H]1C(=O)NCCN1C(=O)NC(c1ccc(Cl)c(C(F)(F)F)n1)C1CC(C(F)(F)F)C1 (single isomer, unassigned) [Example 47B, (2R)—N—((R or S)-(5-chloro-6-(trifluoromethyl)pyridin-2-yl)(trans-3-(trifluoromethyl)cyclobutyl)methyl)-2-methyl-3-oxopiperazine-1-carboxamide] | 61.8
C[C@@H]1C(=O)NCCN1C(=O)NC(C)(c1ccc(F)c(Cl)c1)C1CC(C(F)(F)F)C1 (single isomer, unassigned) [Example 48A, (2R)—N—((R or S)-1-(3-chloro-4-fluorophenyl)-1-(cis-3-(trifluoromethyl)cyclobutyl)ethyl)-2-methyl-3-oxopiperazine-1-carboxamide] | 4370
C[C@@H]1C(=O)NCCN1C(=O)NC(C)(c1ccc(F)c(Cl)c1)C1CC(C(F)(F)F)C1 (single isomer, unassigned) [Example 48B, (2R)—N—((R or S)-1-(3-chloro-4-fluorophenyl)-1-(trans-3-(trifluoromethyl)cyclobutyl)ethyl)-2-methyl-3-oxopiperazine-1-carboxamide] | 904
C[C@@H]1C(=O)NCCN1C(=O)NC(C)(c1ccc(F)c(Cl)c1)C1CC(C(F)(F)F)C1 (single isomer, unassigned) [Example 48C, (2R)—N—((S or R)-1-(3-chloro-4-fluorophenyl)-1-(cis-3-(trifluoromethyl)cyclobutyl)ethyl)-2-methyl-3-oxopiperazine-1-carboxamide] | 312
C[C@@H]1C(=O)NCCN1C(=O)NC(C)(c1ccc(F)c(Cl)c1)C1CC(C(F)(F)F)C1 (single isomer, unassigned) [Example 48D, (2R)—N—((S or R)-1-(3-chloro-4-fluorophenyl)-1-(trans-3-(trifluoromethyl)cyclobutyl)ethyl)-2-methyl-3-oxopiperazine-1-carboxamide] | 515
C[C@@H]1C(=O)NCCN1C(=O)NC(c1ccc(OC(F)(F)F)c(F)c1)[C@H]1C[C@H](C(F)(F)F)C1 (single isomer, unassigned) [Example 49B] | 84.6
C[C@@H]1C(=O)NCCN1C(=O)NC(c1ccc(OC(F)(F)F)cc1F)[C@H]1C[C@H](C(F)(F)F)C1 (single isomer, unassigned) [Example 50A, ((2R)-N-((R or S)-(2-fluoro-4-(trifluoro-methoxy)phenyl)(trans-3-(trifluoromethyl)-cyclobutyl)methyl)-2-methyl-3-oxopiperazine-1-carboxamide] | 389
C[C@@H]1C(=O)NCCN1C(=O)NC(c1ccc(F)c(C(F)(F)F)c1)[C@H]1C[C@H](C(F)(F)F)C1 (single isomer, unassigned) [Example 51A, (2R)-N-((R or S)-(4-fluoro-3-(trifluoro-methyl)phenyl)(trans-3-(trifluoro-methyl)-cyclo-butyl)methyl)-2-methyl-3-oxo-piperazine-1-carboxamide] | 117
O=C1CN(C(=O)NC(c2ccc(F)c(C(F)(F)F)c2)[C@H]2C[C@H](C(F)(F)F)C2)CCN1 (single isomer, unassigned) [Example 52A, N-((R or S)-(4-fluoro-3-(trifluoromethyl)phenyl) (trans-3-(trifluoro-methyl)cyclobutyl)-methyl)-3-oxo-piperazine-1-carboxamide] | 320
C[C@@H]1C(=O)NCCN1C(=O)NC(c1cccc(Cl)c1F)[C@H]1C[C@H](C(F)(F)F)C1 (single isomer, unassigned) [Example 53A, (2R)-N-((R or S)-(3-chloro-2-fluorophenyl)-(trans-3-(trifluoro-methyl)cyclobutyl)meth-yl)-2-methyl-3-oxo-piperazine-1-carboxamide] | 538
C[C@@H]1C(=O)NCCN1C(=O)NC(c1csc(C(F)(F)F)n1)[C@H]1CC[C@H](C(F)(F)F)CC1 (single isomer, unassigned) [Example 55A] | 494
C[C@@H]1C(=O)NCCN1C(=O)NC(c1ccc(F)c(Cl)c1F)[C@H]1C[C@@H]1C(F)(F)F (single isomer, unassigned) [Example 57C] | 566

These reach a lower IC50. Values come first.

IC50 [nM] | SMILES
5.27 | O=C1CN(C(=O)NC(c2ccc(Cl)c(C(F)(F)F)n2)C2CCC(C(F)(F)F)CC2)CCN1 (single isomer, unassigned) [Example 45B]
23.7 | C[C@@H]1C(=O)NCCN1C(=O)NC(c1ccc(Cl)c(C(F)(F)F)n1)C1CCC(F)(F)CC1 (single isomer, unassigned) [Example 46B, (2R)-N-((S or R)-(5-chloro-6-(trifluoro-methyl)pyridin-2-yl)(4,4-difluoro-cyclohexyl)methyl)-2-methyl-3-oxo-piperazine-1-carboxamide]
11.4 | C[C@@H]1C(=O)NCCN1C(=O)NC(c1ccc(Cl)c(C(F)(F)F)n1)C1CC(C(F)(F)F)C1 (single isomer, unassigned) [Example 47A, (2R)—N—((R or S)-(5-chloro-6-(trifluoromethyl)pyridin-2-yl)(cis-3-(trifluoromethyl)-cyclobutyl)methyl)-2-methyl-3-oxopiperazine-1-carboxamide]
2.66 | C[C@@H]1C(=O)NCCN1C(=O)NC(c1ccc(Cl)c(C(F)(F)F)n1)C1CC(C(F)(F)F)C1 (single isomer, unassigned) [Example 47C, (2R)—N—((S or R)-(5-chloro-6-(trifluoromethyl)pyridin-2-yl)(trans-3-(trifluoromethyl)cyclobutyl)methyl)-2-methyl-3-oxopiperazine-1-carboxamide]
36.6 | C[C@@H]1C(=O)NCCN1C(=O)NC(c1ccc(Cl)c(C(F)(F)F)n1)C1CC(C(F)(F)F)C1 (single isomer, unassigned) [Example 47D, (2R)—N—((S or R)-(5-chloro-6-(trifluoromethyl)pyridin-2-yl)(cis-3-(trifluoromethyl)-cyclobutyl)methyl)-2-methyl-3-oxopiperazine-1-carboxamide]
4.46 | C[C@@H]1C(=O)NCCN1C(=O)NC(c1ccc(OC(F)(F)F)c(F)c1)[C@H]1C[C@H](C(F)(F)F)C1 (single isomer, unassigned) [Example 49A]
9.01 | C[C@@H]1C(=O)NCCN1C(=O)NC(c1ccc(OC(F)(F)F)cc1F)[C@H]1C[C@H](C(F)(F)F)C1 (single isomer, unassigned) [Example 50B, (2R)-N-((S or R)-(2-fluoro-4-(trifluoro-methoxy)phenyl)(trans-3-(trifluoro-methyl)-cyclobutyl)-methyl)-2-methyl-3-oxopiperazine-1-carboxamide]
3.03 | C[C@@H]1C(=O)NCCN1C(=O)NC(c1ccc(F)c(C(F)(F)F)c1)[C@H]1C[C@H](C(F)(F)F)C1 (single isomer, unassigned) [Example 51B, (2R)-N-((S or R)-(4-fluoro-3-(trifluoro-methyl)phenyl)(trans-3-(trifluoro-methyl)-cyclobutyl)methyl)-2-methyl-3-oxopiperazine-1-carboxamide]
11.8 | O=C1CN(C(=O)NC(c2ccc(F)c(C(F)(F)F)c2)[C@H]2C[C@H](C(F)(F)F)C2)CCN1 (single isomer, unassigned) [Example 52B, N-((S or R)-(4-fluoro-3-(trifluoromethyl)phenyl) (trans-3-(trifluoro-methyl)cyclobutyl)-methyl)-3-oxo-piperazine-1-carboxamide]
9.06 | C[C@@H]1C(=O)NCCN1C(=O)NC(c1cccc(Cl)c1F)[C@H]1C[C@H](C(F)(F)F)C1 (single isomer, unassigned) [Example 53B, (2R)-N-((S or R)-(3-chloro-2-fluorophenyl)-(trans-3-(trifluoro-methyl)cyclobutyl)meth-yl)-2-methyl-3-oxo-piperazine-1-carboxamide]
1.7 | C[C@@H]1C(=O)NCCN1C(=O)NC(c1ccc(OC(F)(F)F)c(Cl)c1)C1CC(C(F)(F)F)C1 (single isomer, unassigned) [Example 54A, (2R)-N-((R or S)-(3-chloro-4-(trifluoro-methoxy)phenyl)(3-(trifluoromethyl)cyclo-butyl)methyl)-2-methyl-3-oxopiperazine-1-carboxamide]
4.18 | C[C@@H]1C(=O)NCCN1C(=O)NC(c1ccc(OC(F)(F)F)c(Cl)c1)C1CC(C(F)(F)F)C1 (single isomer, unassigned) [Example 54B, (2R)-N-((S or R)-(3-chloro-4-(trifluoro-methoxy)phenyl)(3-(trifluoromethyl)cyclo-butyl)methyl)-2-methyl-3-oxopiperazine-1-carboxamide]
26.3 | C[C@@H]1C(=O)NCCN1C(=O)NC(c1csc(C(F)(F)F)n1)[C@H]1CC[C@H](C(F)(F)F)CC1 (single isomer, unassigned) [Example 55B]
12 | C[C@@H]1C(=O)NCCN1C(=O)NC(c1ccc(F)c(Cl)c1F)[C@H]1C[C@@H]1C(F)(F)F (single isomer, unassigned) [Example 57D]
9.23 | C[C@@H]1C(=O)NCCN1C(=O)NC(c1ccc(F)c(Cl)c1F)C1CCC(C(F)(F)F)C1 (single isomer, unassigned) [Example 58A, (2R)—N—((R or S)-(3-chloro-2,4-difluorophenyl)(cis-3-(trifluoromethyl)cyclopentyl)methyl)-2-methyl-3-oxopiperazine-1-carboxamide]
